“And” between values parts separate entries of the source, which are not always exact repeats. Equal entries are not always repeated. “Also recorded” adds a separate entry of the source.

Consider 3 compounds from patent EP0591378B1, “METHOD OF PREVENTING AND TREATING CHEMOTHERAPY-INDUCED ALOPECIA” (Hairbiotech, Inc., priority 1991, dated 1993).

One assay concerns Cytoxan-induced alopecia. The assay can be described thus: Cytoxan-induced alopecia in young rats. The class given is in vivo.
For assay [1], the system named is EGF receptors on a cell line established from rat calvaria. Conditions: cited from earlier work.
Assay [2] has as its system EGF receptors on breast cancer cells. Conditions: cited from earlier work.
The test system of assay [3] is hair growth. The assay can be described thus: Stimulation of hair regrowth on the shaven back of rats. The class given is in vivo, Sprague Dawley rats. The procedure: The backs of nineteen 25 day old Sprague Dawley rats were shaven and randomized in two groups.
Group I (control 10 rats) received 0.1 ml of ethanol applied topically once daily to the shaven area for 14 days.
Group II (Calcitriol 9 rats) received 50 ng of 1,25-dihydroxyvitamin D3 in 0.1 ml of ethanol applied topically once daily to the shaven area for 14 days.
On day 15 stimulation of hair regrowth was assessed by reshaving an area 6 cm x 6 cm in diameter. The hair was collected and weighed. The difference between two groups was highly statistically significant. P. value 0.003 (see Table III and Figure 11).

The test system of assay [4] is Cytoxan/Adriamycin-Induced Alopecia. Description: Alopecia induced by Cytoxan/Adriamycin combination in young rats. The assay is classed as in vivo, Sprague Dawley rats. The procedure:
Eight 4-day old Sprague Dawley rats were randomized in two groups of 4 rats each. […] Group II received buffer injections and served as controls. One day after stopping EGF or buffer injections all rats received Cytoxan 25 mg/kg i.p. x 1 day and Adriamycin 2.5 mg/kg i.p. x 3 days. In Group II, all rats had 3+ alopecia over head and neck area. In contrast, in Group I one rat had mild alopecia, one rat minimal alopecia, and two rats no detectable alopecia over head and neck. (FIGURE 5).
(§1) Topical Application of 1,25-dihydroxyvitamin D3: • 1,25-Dihydroxyvitamin D3 was dissolved in absolute ethanol and applied topically with an applicator. Control animals were similarly treated with the same amount of ethanol. Animals were then kept individually separated for a period of three hours following which the treated area was carefully washed with soap and water and dried. Treatment was given daily beginning on day 5 after birth and ending on day 10.
Chemotherapy: • All chemotherapies were given I.P. and started at 11 days of age. CTX, 35 mg/kg, was given for one day only. VP-16, 1.5 mg/kg, was given for three days. For CTX and ADM combination, CTX, 25 mg/kg was given for one day and ADM, 2.5 mg/kg, for three days. At these doses neither CTX nor ADM alone will produce alopecia. Alopecia was recorded on the tenth day from beginning chemotherapy.
A total of 4 experiments were carried out. […]

A further assay has as its system VP-16-induced alopecia. Description: VP-16 (Etoposide)-induced alopecia in young rats. The assay is classed as in vivo. The procedure:
Twelve 7 day old rats were randomized in two groups. Group I was treated daily with buffer 0.1 ml s.c. for four days. The second Group was treated daily with Vitamin D3 50µg s.c. over head for four days. After stopping the buffer or Vitamin D3 treatment, all rats received 1.5 mg/kg i.p. of VP-16 (Etoposide) daily for three days.
as §1
Chemotherapy: • All chemotherapies were given I.P. and started at 11 days of age. CTX, 35 mg/kg, was given for one day only. VP-16, 1.5 mg/kg, was given for three days. For CTX and ADM combination, CTX, 25 mg/kg was given for one day and ADM, 2.5 mg/kg, for three days. […] Alopecia was recorded on the tenth day from beginning chemotherapy.
A total of 4 experiments were carried out. In the first experiment, protection from Cytoxan-induced alopecia was examined. The experimental group was pretreated with 0.2 µg of 1,25-dihydroxyvitamin D, in 0.15 ml of absolute ethanol applied topically over the head and neck and the control group received 0.15 ml of alcohol. […] The second experiment was carried out under similar conditions to examine protection from VP-16-induced alopecia. […] The third experiment was designed to examine protection from alopecia induced by Cytoxan-Adriamycin combination. There were 11 rats in each group. […] In the fourth experiment, protection from VP-16-induced alopecia was similarly examined except that the dose of 1,25-dihydroxyvitamin D3 was reduced to 0.1 µg in 0.1 ml absolute ethanol applied topically over the head area only.
RO 23-7553 (1,25 dihydroxy-16-ene-23-yne-cholecalciferol) was dissolved in absolute ethanol and applied topically with an applicator. Control animals were similarly treated with the same amount of ethanol. Animals were then kept individually separated for a period of three hours following which the treated area was carefully washed with soap and water and dried. Treatment was given daily beginning on day 9 after birth and ending on day 14.
On day 15 all animals received VP-16, 1.5 mg/kg i.p., for three days. Alopecia was recorded on day 25.
Thirteen rats were randomized in two groups. Experimental group, 7 rats; control group, 6 rats. The experimental group was pretreated with 1 µg of RO 23-7553 in 0.2 ml absolute ethanol applied topically over the neck and back and the control group received 0.2 ml of absolute ethanol.

For assay [5], the system named is hair growth. Description: Stimulation of hair regrowth on the shaven back of rats. The assay is classed as in vivo, Sprague Dawley rats. The settings on record: observation in treated rats during the chemotherapy-induced alopecia studies.
The next assay deals with ARA-C-induced alopecia. Description: ARA-C-induced alopecia in young rats. The assay is classed as in vivo, Sprague Dawley rats. The settings on record: Alopecic drug Cytarabine (ARA-C) 50 mg/kg i.p. daily for 7 days, 50 µg daily i.p. or s.c. for 4 days prior to chemotherapy, 1 experiment, 8 animals, uniformly observed in all treated animals. As for the experimental part:
Sprague Dawley rats were purchased from Charles River Laboratories, Wilmington, MA. Cytosar-U (ARA-C) was from the Upjohn Company, Kalamazoo, MI. Receptor grade EGF from mouse submaxillary glands, human recombinant EGF, dimethyl sulfoxide (DMSO) and Vitamin D3 were purchased from Sigma Chemical Co., St. Louis, MO. aFGF was purchased from AMGEN Corp., Thousand Oaks, CA.
All rats from each experiment were treated with ARA-C 50 mg/kg intraperitoneally (i.p.) daily for 7 days. For subcutaneous (s.c.) injections, EGF and FGF were prepared in PBS 1% BSA. Alopecia was always recorded on day 12 of experiment, and scored as previously described (Hussein et al, Science, 249:1564-1566, 1990; Jimenez et al, FASEB J., 1991).
For topical treatment, murine EGF was prepared as follows: One vial of EGF (100 µg) was dissolved in 0.2 ml of PBS 1% BSA and 0.12 ml of this solution was added to 0.48 of DMSO. Three hours prior to ARA-C injection, 0.1 ml of the EGF-DMSO mixture was applied to each rat over a 1 cm^2 area between the shoulders using a rubber tip applicator. Rats were then kept individually separated for a period of three hours, following which the treated area was carefully washed with soap and water and dried. Treatment was continued for 7 days. […]
Fourteen 7-day old rats were randomized in two groups. […] Alopecia was recorded on day 12 of experiment. […]

Regarding `C=C1/C(=C\C=C2/CCC[C@]3(C)[C@@H]([C@H](C)CCCC(C)(C)O)CC[C@@H]23)C[C@@H](O)C[C@@H]1O` [1,25-dihydroxyvitamin D3], the “protection from Cytoxan-induced alopecia” value with Cytoxan-induced alopecia (pretreatment 0.2 µg in 0.15 ml absolute ethanol topically over head and neck, day 5 to day 10 after birth, CTX 35 mg/kg I.P. one day, recorded on tenth day, all animals) is listed as “protected”. In addition, the “effect on EGF receptors on a cell line established from rat calvaria” value in assay [1] was “increase”. Moreover, the “effect on EGF receptors on breast cancer cells” value in assay [2] is “increase”. Moreover, the “Hair Weight, Mean S.E.M.” value in the assay on hair growth [3] (50 ng in 0.1 ml ethanol topically once daily for 14 days, 9 rats, day 15, P. value 0.003 versus control (113 ± 8)) is given as 164 ± 13 Mg. Moreover, the “Hair Weight (individual rats)” value in the assay on hair growth [3] (50 ng in 0.1 ml ethanol topically once daily to the shaven area for 14 days, reshaved area 6 cm x 6 cm on day 15, listed as Calcitriol) is 135 Mg. and 202 Mg. and 143 Mg. and 150 Mg. and 253 Mg. and 130 Mg. and 177 Mg. and 140 Mg. and 147 Mg. Besides, in assay [4] (pretreatment 0.2 µg in 0.15 ml absolute ethanol topically over head and neck, CTX 25 mg/kg one day and ADM 2.5 mg/kg three days I.P., 11 rats, all rats), the “protection from alopecia induced by Cytoxan-Adriamycin combination” value is “protected”. For the same compound, the “protection from VP-16-induced alopecia” value is “protected” in the assay with VP-16-induced alopecia (applied topically 0.5 µg daily in 50% ethanol or DMSO); “protected primarily at the site of 1,25-dihydroxyvitamin D3 application; also recorded: less generalized and was more limited to the site of application” in the assay on VP-16-induced alopecia (pretreatment 0.1 µg in 0.1 ml absolute ethanol topically over the head area only, VP-16 1.5 mg/kg I.P. for three days, all rats); “protected; also recorded: not limited to the site of application but involved the entire body” in the assay with VP-16-induced alopecia (pretreatment 0.2 µg in 0.15 ml absolute ethanol topically over head and neck, VP-16 1.5 mg/kg I.P. for three days, recorded on tenth day, all rats). For the same compound, the “coat of hair and hair length in the treated area” value with hair growth [5] was “better coat of hair and longer hair in the treated area”.
In the case of `C=C1CC[C@H](O)C/C1=C/C=C1\CCC[C@]2(C)[C@@H]([C@H](C)CCCC(C)C)CC[C@@H]12` [Vitamin D3], the Protection from alopecia entry in the assay with Cytoxan-induced alopecia (Alopecic drug Cytoxan (CTX) 32.5 mg/kg single injection, 50 µg daily i.p. or s.c. for 4 days prior to chemotherapy, 7 experiments, 89 animals, uniformly observed in all treated animals, 32.5 mg/kg) is “excellent protection and Yes*”; in the assay on ARA-C-induced alopecia it was “excellent protection and Yes*”; in assay [4] (Adriamycin 2.5 mg/kg i.p. daily for 3 days plus Cytoxan 25 mg/kg single injection, 50 µg daily i.p. or s.c. for 4 days prior to chemotherapy, 6 experiments, 77 animals, uniformly observed in all treated animals), “excellent protection and Yes*”; in the assay on VP-16-induced alopecia (50µg s.c. over head daily for four days, then VP-16 1.5 mg/kg i.p. daily for three days, 7 day old rats), “protected”; in the assay with VP-16-induced alopecia (Alopecic drug Etoposide (VP-16) 1.5 mg/kg i.p. daily for 3 days, 50 µg daily i.p. or s.c. for 4 days prior to chemotherapy, 2 experiments, 22 animals, uniformly observed in all treated animals), “excellent protection and Yes*”.
With `C=C1/C(=C\C=C2/CCC[C@]3(C)C([C@H](C)CC#CC(C)(C)O)=CC[C@@H]23)C[C@@H](O)C[C@@H]1O` [RO 23-7553, 1,25 dihydroxy-16-ene-23-yne-cholecalciferol], the “protection from VP-16-induced alopecia” value in the assay with VP-16-induced alopecia (pretreatment 1 µg in 0.2 ml absolute ethanol topically over neck and back, day 9 to day 14 after birth, VP-16 1.5 mg/kg i.p. three days from day 15, recorded on day 25, 7 rats, all animals) is given as “protected”.
